# Data from patent US20240409585A1, “MACROCYCLIC IMMUNOMODULATORS” (priority 2021, published 2024).
# Numbered stars: 1 amine (or outer) side, 2 acyl side, 3 side chain; on linkers, the order of the positions; unused ones are H or OH. Bridge positions count the residues as written; N and C are the ends. Square brackets hold non-standard residues; d marks the D form. Peptide text beside a SMILES is read from it. * marks the point of attachment. ξ: configuration not given here. X25 = N#CCCc1ccc(-c2ccc(C[C@H](N[*:1])C(=O)[*:2])cc2)cc1; Phe(4-COOH) = N[C@@H](Cc1ccc(C(=O)O)cc1)C(=O)O; Bip = N[C@@H](Cc1ccc(-c2ccccc2)cc1)C(=O)O; Phe(3-OMe) = COc1cccc(C[C@H](N)C(=O)O)c1; Phe(3-Me) = Cc1cccc(C[C@H](N)C(=O)O)c1; Val(3-OH) = CC(C)(O)[C@H](N)C(=O)O; 4Pal = N[C@@H](Cc1ccncc1)C(=O)O; Cha = N[C@@H](CC1CCCCC1)C(=O)O; Cit = NC(=O)NCCC[C@H](N)C(=O)O; Ile(3ξ) = CCC(C)[C@H](N)C(=O)O; Carboxymethyl = O=C(O)C*; NMeA = CN[C@@H](C)C(=O)O; Pra = C#CC[C@H](N)C(=O)O; Dab = NCC[C@H](N)C(=O)O; Dap = NC[C@H](N)C(=O)O; ξN = NC(=O)CC(N)C(=O)O
# Target: T1, PE-labeled human PD-L1-Ig binding to Jurkat cell line over-expressing human PD-1 (Jurkat-PD-1) (Homo sapiens, UniProt Q15116)
# T1 construct: expressed in transfected cells; host or cells: Jurkat
# T1 sequence (Q15116 25-288): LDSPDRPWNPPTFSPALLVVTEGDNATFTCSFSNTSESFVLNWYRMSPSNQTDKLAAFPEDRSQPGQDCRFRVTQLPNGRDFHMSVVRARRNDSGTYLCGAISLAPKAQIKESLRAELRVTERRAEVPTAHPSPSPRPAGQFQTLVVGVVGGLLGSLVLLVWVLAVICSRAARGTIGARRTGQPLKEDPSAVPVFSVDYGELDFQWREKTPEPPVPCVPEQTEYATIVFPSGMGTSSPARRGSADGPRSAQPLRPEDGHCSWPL
# Test: Jurkat-PD-1 Cell Binding High-Content Screening Assay (CBA): Method 1
# Conditions: Jurkat-hPD-1 cells, PE-labeled PD-L1-Ig 20 nM final; read-out: Jurkat HPDL1 PD1 IC50 (uM) (Method 1)
row,SMILES,IC50 [µM]
1,CC(C)C[C@@H]1NC(=O)[C@H](CCN)NC(=O)[C@@H](CC(C)C)NC(=O)[C@H](C)N(C)C(=O)[C@H](CCCNC(=N)N)NC(=O)[C@H](Cc2ccc(-c3ccc(CCC#N)cc3)cc2)NC(=O)[C@H](C(C)C)NC(=O)[C@H](Cc2c[nH]c3ccccc23)NC(=O)[C@H](CC(=O)O)NC(=O)[C@H](Cc2ccc(O)cc2)NC(=O)[C@H](CC(N)=O)NC(=O)CSC[C@@H](C(=O)N[C@@H](C)C(N)=O)NC(=O)[C@H]([C@@H](C)O)NC(=O)[C@H](C(C)C)NC1=O [Compound 1213] ({CH2CO}-NYDWV[X25]R[NMeA][dL][Dab]LVTCA-NH2; thioether N-14),0.25
2,CC(C)C[C@@H]1NC(=O)[C@H](CCCCN)NC(=O)[C@@H](CC(C)C)NC(=O)[C@H](C)N(C)C(=O)[C@H](CCCNC(N)=O)NC(=O)[C@H](Cc2ccc(-c3ccccc3)cc2)NC(=O)[C@H](C(C)C)NC(=O)[C@H](Cc2c[nH]c3ccccc23)NC(=O)[C@H](CC(=O)O)NC(=O)[C@H](Cc2ccc(O)cc2)NC(=O)[C@H](CC(N)=O)NC(=O)CSC[C@@H](C(=O)NCC(N)=O)NC(=O)[C@H]([C@@H](C)O)NC(=O)[C@H](C(C)C)NC1=O [Compound 1475] ({CH2CO}-NYDWV[Bip][Cit][NMeA][dL]KLVTCG-NH2; thioether N-14),0.05
3,CCC(C)[C@@H]1NC(=O)[C@H](Cc2ccc(-c3ccccc3)cc2)NC(=O)[C@H](CC(C)C)NC(=O)[C@H](Cc2c[nH]c3ccccc23)NC(=O)[C@H](CC(=O)O)NC(=O)[C@H](Cc2ccc(C(=O)O)cc2)NC(=O)[C@H](Cc2ccc(OCC(=O)O)cc2)NC(=O)CSC[C@@H](C(=O)N[C@@H](CO)C(N)=O)NC(=O)[C@H](CCC(=O)O)NC(=O)[C@H](C(C)C)NC(=O)[C@H](CC2CCCCC2)NC(=O)[C@H](CCN)NC(=O)[C@@H](CC(C)C)NC(=O)[C@H](C)N(C)C1=O (stereo partly drawn) [Compound 1930] ({CH2CO}-Y(Carboxymethyl)[Phe(4-COOH)]DWL[Bip][Ile(3ξ)][NMeA][dL][Dab][Cha]VECS-NH2; thioether N-14),0.02
4,CC(C)C[C@@H]1NC(=O)[C@H](Cc2c[nH]c3ccccc23)NC(=O)[C@H](CC(=O)O)NC(=O)[C@H](Cc2ccc(OCC(=O)O)cc2)NC(=O)[C@H](Cc2ccccc2)NC(=O)CSC[C@@H](C(=O)N[C@@H](CC(N)=O)C(N)=O)NC(=O)[C@H](CO)NC(=O)[C@H](C(C)C)NC(=O)[C@H](CC(C)C)NC(=O)[C@H](CCN)NC(=O)[C@@H](CC(C)C)NC(=O)[C@H](C)N(C)C(=O)[C@H](Cc2cnc[nH]2)NC(=O)[C@H](Cc2ccc(-c3ccccc3)cc2)NC1=O [Compound 2096] ({CH2CO}-FY(Carboxymethyl)DWL[Bip]H[NMeA][dL][Dab]LVSCN-NH2; thioether N-14),0.04
5,CC(C)C[C@@H]1NC(=O)[C@H](Cc2c[nH]c3ccccc23)NC(=O)[C@H](CC(=O)O)NC(=O)[C@H](Cc2ccc(C(=O)O)cc2)NC(=O)[C@H](Cc2ccc(OCC(=O)O)cc2)NC(=O)CSC[C@@H](C(=O)NC(CC(N)=O)C(N)=O)NC(=O)[C@H](CO)NC(=O)[C@H](C(C)C)NC(=O)[C@H](CC2CCCCC2)NC(=O)[C@H](CCN)NC(=O)[C@@H](CC(C)C)NC(=O)[C@H](C)N(C)C(=O)[C@H](C(C)C)NC(=O)[C@H](Cc2ccc(-c3ccccc3)cc2)NC1=O (stereo partly drawn) [Compound 1912] ({CH2CO}-Y(Carboxymethyl)[Phe(4-COOH)]DWL[Bip]V[NMeA][dL][Dab][Cha]VSC[ξN]-NH2; thioether N-14),0.02
6,CC(C)C[C@@H]1NC(=O)[C@H](CCCCN)NC(=O)[C@@H](CC(C)C)NC(=O)[C@H](C)N(C)C(=O)[C@H](CCCNC(N)=O)NC(=O)[C@H](Cc2ccc(-c3ccccc3)cc2)NC(=O)[C@H](C(C)C)NC(=O)[C@H](Cc2c[nH]c3ccccc23)NC(=O)[C@H](CC(=O)O)NC(=O)[C@H](Cc2ccc(O)cc2)NC(=O)[C@H](CC(N)=O)NC(=O)CSC[C@@H](C(=O)NCC(N)=O)NC(=O)[C@H](CO)NC(=O)[C@H](C(C)C)NC1=O [Compound 1474] ({CH2CO}-NYDWV[Bip][Cit][NMeA][dL]KLVSCG-NH2; thioether N-14),0.08
7,CC(C)C[C@@H]1NC(=O)[C@H](CCN)NC(=O)[C@@H](CC(C)C)NC(=O)[C@H](C)N(C)C(=O)[C@H](CCCNC(=N)N)NC(=O)[C@H](Cc2ccc(-c3ccccc3)cc2)NC(=O)[C@H](C(C)C)NC(=O)[C@H](Cc2c[nH]c3ccccc23)NC(=O)[C@H](CC(=O)O)NC(=O)[C@H](Cc2ccc(O)cc2)NC(=O)[C@H](CCC(N)=O)NC(=O)CSC[C@@H](C(=O)N[C@@H](C)C(N)=O)NC(=O)[C@H]([C@@H](C)O)NC(=O)[C@H](C(C)C)NC1=O [Compound 1056] ({CH2CO}-QYDWV[Bip]R[NMeA][dL][Dab]LVTCA-NH2; thioether N-14),0.06
8,C#CC[C@H](NC(=O)CNC(=O)[C@@H]1CSCC(=O)N[C@@H]([C@@H](C)O)C(=O)N[C@@H](Cc2ccc(OCC(=O)O)cc2)C(=O)N[C@@H](CC(=O)O)C(=O)N[C@@H](Cc2cccc(C)c2)C(=O)N[C@@H](Cc2ccc(OCC(=O)O)cc2)C(=O)N[C@@H](Cc2ccc(-c3ccccc3)cc2)C(=O)N[C@@H](Cc2ccc(OCC(=O)O)cc2)C(=O)N(C)[C@@H](C)C(=O)N[C@H](CC(C)C)C(=O)N[C@@H](CCN)C(=O)N[C@@H](CC2CCCCC2)C(=O)N[C@@H](C(C)(C)O)C(=O)N[C@@H](CCC(=O)O)C(=O)N1)C(=O)O [Compound 1938] ({CH2CO}-TY(Carboxymethyl)D[Phe(3-Me)]Y(Carboxymethyl)[Bip]Y(Carboxymethyl)[NMeA][dL][Dab][Cha][Val(3-OH)]ECG[Pra]-OH; thioether N-14),0.34
9,Cc1cccc(C[C@@H]2NC(=O)[C@H](CC(=O)O)NC(=O)[C@H](Cc3ccc(OCC(=O)O)cc3)NC(=O)[C@H](CN)NC(=O)CSC[C@@H](C(=O)N[C@@H](C)C(N)=O)NC(=O)[C@H]([C@@H](C)O)NC(=O)[C@H](C(C)C)NC(=O)[C@H](CC(C)C)NC(=O)[C@H](CCN)NC(=O)[C@@H](CC(C)C)NC(=O)[C@H](C)N(C)C(=O)[C@H](CCCNC(N)=O)NC(=O)[C@H](Cc3ccc(-c4ccccc4)cc3)NC(=O)[C@H](C(C)C)NC2=O)c1 [Compound 1437] ({CH2CO}-[Dap]Y(Carboxymethyl)D[Phe(3-Me)]V[Bip][Cit][NMeA][dL][Dab]LVTCA-NH2; thioether N-14),0.02
10,CC(C)C[C@@H]1NC(=O)[C@H](Cc2c[nH]c3ccccc23)NC(=O)[C@H](CC(=O)O)NC(=O)[C@H](Cc2ccc(O)cc2)NC(=O)[C@H](Cc2ccccc2)NC(=O)CSC[C@@H](C(=O)N[C@@H](C)C(N)=O)NC(=O)[C@H](CO)NC(=O)[C@H](C(C)C)NC(=O)[C@H](CC(C)C)NC(=O)[C@H](CC(N)=O)NC(=O)[C@@H](Cc2ccccc2)NC(=O)[C@H](C)N(C)C(=O)[C@H](C(C)C)NC(=O)[C@H](Cc2ccc(-c3ccccc3)cc2)NC1=O [Compound 1783] ({CH2CO}-FYDWL[Bip]V[NMeA][dF]NLVSCA-NH2; thioether N-14),0.09
11,Cc1cccc(C[C@@H]2NC(=O)[C@H](CC(=O)O)NC(=O)[C@H](Cc3ccc(OCC(=O)O)cc3)NC(=O)[C@H](Cc3ccncc3)NC(=O)CSC[C@@H](C(N)=O)NC(=O)[C@H](CCC(=O)O)NC(=O)[C@H](C(C)C)NC(=O)[C@H](CC3CCCCC3)NC(=O)[C@H](CCN)NC(=O)[C@@H](CC(C)C)NC(=O)[C@H](C)N(C)C(=O)[C@H](Cc3ccc(OCC(=O)O)cc3)NC(=O)[C@H](Cc3ccc(-c4ccccc4)cc3)NC(=O)[C@H](Cc3ccc(OCC(=O)O)cc3)NC2=O)c1 [Compound 1661] ({CH2CO}-[4Pal]Y(Carboxymethyl)D[Phe(3-Me)]Y(Carboxymethyl)[Bip]Y(Carboxymethyl)[NMeA][dL][Dab][Cha]VEC-NH2; thioether N-14),0.05
12,Cc1cccc(C[C@@H]2NC(=O)[C@H](CC(=O)O)NC(=O)[C@H](Cc3ccc(C(=O)O)cc3)NC(=O)[C@H](Cc3ccc(OCC(=O)O)cc3)NC(=O)CSC[C@@H](C(N)=O)NC(=O)[C@H](CO)NC(=O)[C@H](C(C)C)NC(=O)[C@H](CC(C)C)NC(=O)[C@H](CC(N)=O)NC(=O)[C@@H](CC(C)C)NC(=O)[C@H](C)N(C)C(=O)[C@H](C(C)C)NC(=O)[C@H](Cc3ccc(-c4ccccc4)cc3)NC(=O)[C@H](CC(C)C)NC2=O)c1 [Compound 1596] ({CH2CO}-Y(Carboxymethyl)[Phe(4-COOH)]D[Phe(3-Me)]L[Bip]V[NMeA][dL]NLVSC-NH2; thioether N-14),0.02
13,CC(C)C[C@@H]1NC(=O)[C@H](CCCNC(=N)N)NC(=O)[C@@H](CC(C)C)NC(=O)[C@H](C)N(C)C(=O)[C@H](CCC(=O)O)NC(=O)[C@H](Cc2ccc(-c3ccccc3)cc2)NC(=O)[C@H](C(C)C)NC(=O)[C@H](Cc2c[nH]c3ccccc23)NC(=O)[C@H](CC(=O)O)NC(=O)[C@H](Cc2ccc(O)cc2)NC(=O)[C@H](CC(N)=O)NC(=O)CSC[C@@H](C(=O)N[C@@H](C)C(N)=O)NC(=O)[C@H](CO)NC(=O)[C@H](C(C)C)NC1=O [Compound 1256] ({CH2CO}-NYDWV[Bip]E[NMeA][dL]RLVSCA-NH2; thioether N-14),0.06
14,CC(C)C[C@@H]1NC(=O)[C@H](Cc2c[nH]c3ccccc23)NC(=O)[C@H](CC(=O)O)NC(=O)[C@H](Cc2ccc(C(=O)O)cc2)NC(=O)[C@H](Cc2ccccc2)NC(=O)CSC[C@@H](C(=O)N[C@@H](C)C(N)=O)NC(=O)[C@H](CO)NC(=O)[C@H](C(C)C)NC(=O)[C@H](CC(C)C)NC(=O)[C@H](CC(N)=O)NC(=O)[C@@H](C)NC(=O)[C@H](C)N(C)C(=O)[C@H](C(C)C)NC(=O)[C@H](Cc2ccc(-c3ccccc3)cc2)NC1=O [Compound 1731] ({CH2CO}-F[Phe(4-COOH)]DWL[Bip]V[NMeA][dA]NLVSCA-NH2; thioether N-14),0.01
15,COc1cccc(C[C@@H]2NC(=O)[C@H](CC(=O)O)NC(=O)[C@H](Cc3ccc(OCC(=O)O)cc3)NC(=O)[C@H](CN)NC(=O)CSC[C@@H](C(=O)N[C@@H](C)C(N)=O)NC(=O)[C@H]([C@@H](C)O)NC(=O)[C@H](C(C)C)NC(=O)[C@H](CC(C)C)NC(=O)[C@H](CCN)NC(=O)[C@@H](CC(C)C)NC(=O)[C@H](C)N(C)C(=O)[C@H](CCCNC(N)=O)NC(=O)[C@H](Cc3ccc(-c4ccccc4)cc3)NC(=O)[C@H](C(C)C)NC2=O)c1 [Compound 1448] ({CH2CO}-[Dap]Y(Carboxymethyl)D[Phe(3-OMe)]V[Bip][Cit][NMeA][dL][Dab]LVTCA-NH2; thioether N-14),0.06
